Measured values published in the supplement of paper PMC10307832.

Assays:
Experiment in all cases: relative viability (nuclei count vs DMSO), 5 days (fraction); higher = more cells survive
201T = test system: 201T
How it was run: (§1)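 A single step with final 0.05% Triton X-100, 1% formaldehyde and 1 ug/ml Hoechst fixed the cells and stained nuclei 5 days after treatment. Lung cancer cell lines in 1536-well plates had been treated by pin tool the day after seeding with one drug alone or a fixed anchor-drug dose plus five library-drug doses (not always all listed) in √10 steps, and nuclei were counted on 4× images. Relative viability is the ratio of nuclei in treated wells to nuclei in vehicle wells, taken as the median of duplicate plates.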

BEN = test system: BEN
How it was run: as §1

CAL-12T = test system: CAL-12T
How it was run: as §1

COR-L 105 = test system: COR-L 105
How it was run: as §1

H3255 = test system: H3255
How it was run: as §1

HARA = test system: HARA
How it was run: as §1

HCC-15 = test system: HCC-15
How it was run: as §1

HCC-827 = test system: HCC-827
How it was run: as §1

LC-2-ad = test system: LC-2-ad
How it was run: as §1

LK-2 = test system: LK-2
How it was run: as §1

LU99A = test system: LU99A
How it was run: as §1

LXF-289 = test system: LXF-289
How it was run: as §1

NCI-H1437 = test system: NCI-H1437
How it was run: as §1

NCI-H1651 = test system: NCI-H1651
How it was run: as §1

NCI-H1792 = test system: NCI-H1792
How it was run: as §1

NCI-H2085 = test system: NCI-H2085
How it was run: as §1

NCI-H2228 = test system: NCI-H2228
How it was run: as §1

NCI-H23 = test system: NCI-H23
How it was run: as §1

NCI-H2405 = test system: NCI-H2405
How it was run: as §1

NCI-H322M = test system: NCI-H322M
How it was run: as §1

RERF-LC-KJ = test system: RERF-LC-KJ
How it was run: as §1

UMC-11 = test system: UMC-11
How it was run: as §1

## O=C(O)CCCCC(CCSCc1ccccc1)SCc1ccccc1 (stereo not given) [CPI-613] + CC1(C)CCC(c2ccc(Cl)cc2)=C(CN2CCN(c3ccc(C(=O)NS(=O)(=O)c4ccc(N[C@H](CCN5CCOCC5)CSc5ccccc5)c(S(=O)(=O)C(F)(F)F)c4)cc3)CC2)C1 [Navitoclax] (partner 0.5 µM)
201T; first compound 5 µM
  relative viability: 1.23
201T; first compound 15.81 µM
  relative viability: 1.2
201T; first compound 50 µM
  relative viability: 1.17
201T; first compound 158.11 µM
  relative viability: 1.14
201T; first compound 500 µM
  relative viability: 1.09
BEN; first compound 5 µM
  relative viability: 0.0595
BEN; first compound 15.81 µM
  relative viability: 0.0465
BEN; first compound 50 µM
  relative viability: 0.0686
BEN; first compound 158.11 µM
  relative viability: 0.0624
BEN; first compound 500 µM
  relative viability: 0.0516
CAL-12T; first compound 5 µM
  relative viability: 1.17
CAL-12T; first compound 15.81 µM
  relative viability: 0.967
CAL-12T; first compound 50 µM
  relative viability: 0.965
CAL-12T; first compound 158.11 µM
  relative viability: 0.0606
CAL-12T; first compound 500 µM
  relative viability: 0.0373
COR-L 105; first compound 5 µM
  relative viability: 0.847
COR-L 105; first compound 15.81 µM
  relative viability: 0.776
COR-L 105; first compound 50 µM
  relative viability: 0.719
COR-L 105; first compound 158.11 µM
  relative viability: 0.297
COR-L 105; first compound 500 µM
  relative viability: 0.286
H3255; first compound 5 µM
  relative viability: 0.497
H3255; first compound 15.81 µM
  relative viability: 0.476
H3255; first compound 50 µM
  relative viability: 0.337
H3255; first compound 158.11 µM
  relative viability: 0.498
H3255; first compound 500 µM
  relative viability: 0.562
HARA; first compound 5 µM
  relative viability: 1.14
HARA; first compound 15.81 µM
  relative viability: 1.13
HARA; first compound 50 µM
  relative viability: 1.16
HARA; first compound 158.11 µM
  relative viability: 0.504
HARA; first compound 500 µM
  relative viability: 0.0371
HCC-15; first compound 5 µM
  relative viability: 0.625
HCC-15; first compound 15.81 µM
  relative viability: 0.68
HCC-15; first compound 50 µM
  relative viability: 0.612
HCC-15; first compound 158.11 µM
  relative viability: 0.309
HCC-15; first compound 500 µM
  relative viability: 0.278
HCC-827; first compound 5 µM
  relative viability: 0.983
HCC-827; first compound 15.81 µM
  relative viability: 0.96
HCC-827; first compound 50 µM
  relative viability: 0.877
HCC-827; first compound 158.11 µM
  relative viability: 0.414
HCC-827; first compound 500 µM
  relative viability: 0.065
LC-2-ad; first compound 5 µM
  relative viability: 0.431
LC-2-ad; first compound 15.81 µM
  relative viability: 0.354
LC-2-ad; first compound 50 µM
  relative viability: 0.297
LC-2-ad; first compound 158.11 µM
  relative viability: 0.0601
LC-2-ad; first compound 500 µM
  relative viability: 0.0074
LK-2; first compound 5 µM
  relative viability: 0.957
LK-2; first compound 15.81 µM
  relative viability: 0.922
LK-2; first compound 50 µM
  relative viability: 1.05
LK-2; first compound 158.11 µM
  relative viability: 0.966
LK-2; first compound 500 µM
  relative viability: 0.87
LU99A; first compound 5 µM
  relative viability: 0.631
LU99A; first compound 15.81 µM
  relative viability: 0.77
LU99A; first compound 50 µM
  relative viability: 0.816
LU99A; first compound 158.11 µM
  relative viability: 0.142
LU99A; first compound 500 µM
  relative viability: 0.0335
LXF-289; first compound 5 µM
  relative viability: 0.898
LXF-289; first compound 15.81 µM
  relative viability: 0.894
LXF-289; first compound 50 µM
  relative viability: 0.905
LXF-289; first compound 158.11 µM
  relative viability: 0.157
LXF-289; first compound 500 µM
  relative viability: 0.0115
NCI-H1437; first compound 5 µM
  relative viability: 1.03
NCI-H1437; first compound 15.81 µM
  relative viability: 0.957
NCI-H1437; first compound 50 µM
  relative viability: 1.03
NCI-H1437; first compound 158.11 µM
  relative viability: 0.199
NCI-H1437; first compound 500 µM
  relative viability: 0.0367
NCI-H1651; first compound 5 µM
  relative viability: 1.04
NCI-H1651; first compound 15.81 µM
  relative viability: 0.866
NCI-H1651; first compound 50 µM
  relative viability: 1
NCI-H1651; first compound 158.11 µM
  relative viability: 0.17
NCI-H1651; first compound 500 µM
  relative viability: 0.152
NCI-H1792; first compound 5 µM
  relative viability: 0.518
NCI-H1792; first compound 15.81 µM
  relative viability: 0.595
NCI-H1792; first compound 50 µM
  relative viability: 0.603
NCI-H1792; first compound 158.11 µM
  relative viability: 0.411
NCI-H1792; first compound 500 µM
  relative viability: 0.601
NCI-H2085; first compound 5 µM
  relative viability: 0.988
NCI-H2085; first compound 15.81 µM
  relative viability: 1.04
NCI-H2085; first compound 50 µM
  relative viability: 1.07
NCI-H2085; first compound 158.11 µM
  relative viability: 0.543
NCI-H2085; first compound 500 µM
  relative viability: 0.196
NCI-H2228; first compound 5 µM
  relative viability: 1.04
NCI-H2228; first compound 15.81 µM
  relative viability: 0.755
NCI-H2228; first compound 50 µM
  relative viability: 0.758
NCI-H2228; first compound 158.11 µM
  relative viability: 0.297
NCI-H2228; first compound 500 µM
  relative viability: 0.0138
NCI-H23; first compound 5 µM
  relative viability: 0.858
NCI-H23; first compound 15.81 µM
  relative viability: 0.711
NCI-H23; first compound 50 µM
  relative viability: 0.801
NCI-H23; first compound 158.11 µM
  relative viability: 0.564
NCI-H23; first compound 500 µM
  relative viability: 0.027
NCI-H2405; first compound 5 µM
  relative viability: 0.929
NCI-H2405; first compound 15.81 µM
  relative viability: 0.796
NCI-H2405; first compound 50 µM
  relative viability: 0.765
NCI-H2405; first compound 158.11 µM
  relative viability: 0.795
NCI-H2405; first compound 500 µM
  relative viability: 0.67
NCI-H322M; first compound 5 µM
  relative viability: 1.21
NCI-H322M; first compound 15.81 µM
  relative viability: 1.17
NCI-H322M; first compound 50 µM
  relative viability: 1.27
NCI-H322M; first compound 158.11 µM
  relative viability: 1.05
NCI-H322M; first compound 500 µM
  relative viability: 0.982
RERF-LC-KJ; first compound 5 µM
  relative viability: 1.01
RERF-LC-KJ; first compound 15.81 µM
  relative viability: 0.747
RERF-LC-KJ; first compound 50 µM
  relative viability: 1.27
RERF-LC-KJ; first compound 158.11 µM
  relative viability: 0.964
RERF-LC-KJ; first compound 500 µM
  relative viability: 0.756
UMC-11; first compound 5 µM
  relative viability: 0.28
UMC-11; first compound 15.81 µM
  relative viability: 0.324
UMC-11; first compound 50 µM
  relative viability: 0.278
UMC-11; first compound 158.11 µM
  relative viability: 0.143
UMC-11; first compound 500 µM
  relative viability: 0.0935
